Broadly, the inhibition is the relative decrease from the control value, in per cent. Usually IC50 stands for the concentration needed to halve the response being measured.

Activity calls are given as the source filed them. No rule for the calls is given here.

Tested on in one test: not listed separately
In words: PhoP promoter GFP reporter reduction in Typhi – purified and synthesized compounds, set 2, PhoP regulon inhibitor project, dose response (AID 2839). Particulars: Salmonella Typhi PhoP-promoter GFP reporter, low Mg2+, 4 h; at 150 µM (top of the series).
With `COc1cccc(NC(=S)NCc2ccc(Cl)cc2)c1`, the inhibition was -3.63% (inactive).

For the compound `O=C(Nc1ccccc1)N1CCCN(Cc2ccccc2F)C1`, the inhibition is 28.7% (inactive).

Turning to `S=C(NCc1ccc(Cl)cc1)Nc1cccnc1`, the inhibition was -36.6% (inactive).

Consider `S=C(NCc1ccc(Cl)cc1)Nc1cccc(Cl)c1`, for which the inhibition was 29.4% (inactive).

With `S=C(NCc1ccc(Cl)cc1)Nc1ccc(Cl)cc1`, the inhibition is 22.4% (inactive).

As for `Cc1cccc(NC(=S)NCc2ccc(Cl)cc2)c1`, the inhibition is 16.8% (inactive).

On to `O=C(NCc1ccccc1)N1CCCN(Cc2ccccc2F)C1`, for which the inhibition was 6.93% (inactive).

As for `Fc1ccccc1NC(=S)NCc1ccc(Cl)cc1`, the inhibition was -0.65% (inactive).

In the case of `S=C(NCc1ccc(Cl)cc1)Nc1ccc(Br)cc1`, the inhibition is 6.57% (inactive).

As for `CCn1cc(C(=O)O)c(=O)c2cc(F)c(N3CCN(C(=S)NC)CC3)cc21`, the inhibition is 4.25% (inactive).

As to `Cc1ccc(NC(=S)NCc2ccc(Cl)cc2)cc1`, the inhibition is 13.6% (inactive).

As to `COc1ccc(NC(=S)NCc2ccc(Cl)cc2)cc1`, the inhibition is 8.24% (inactive).

Regarding `O=C(Nc1ccccc1Cl)N1CCCN(Cc2ccccc2F)C1`, the inhibition was 16.8% (inactive).

On to `O=C1C2=C(Nc3ccccc3SC2c2ccccc2C(F)(F)F)c2ccccc21` (stereo not drawn), for which the inhibition was 7.29% (inactive).

For the compound `CCn1cc(C(=O)O)c(=O)c2cc(F)c(N3CCN(C(=S)NCc4ccccc4)CC3)cc21`, the inhibition was 9.85% (inactive).

The next test deals with Salmonella Typhi PhoP-promoter GFP reporter, low Mg2+, 4 h. The test is described as above.
Conditions: not given
As for `CCn1cc(C(=O)O)c(=O)c2cc(F)c(N3CCN(C(=S)NC(=O)c4ccccc4F)CC3)cc21`, the IC50 was 95.9 µM.

Turning to `O=[N+]([O-])c1ccc(CNC2CCCc3ccccc32)cc1` (stereo not drawn), the IC50 was 16.6 µM.

On to `O=C(Nc1ccc(Br)cc1)N1CCCN(Cc2ccccc2F)C1`, for which the IC50 was 61.6 µM.

On to `CN(C)CCCN(C(=O)CCc1ccccc1)c1nc2ccc(Cl)cc2s1`, for which the IC50 was under 0.15 µM.

Take `O=C(Nc1nnc(-c2cccs2)o1)c1cccc(C(F)(F)F)c1`: the IC50 is 80.1 µM.

For the compound `Cc1ccc(Nc2cc(C)c3c(O)cccc3n2)cc1C`, the 50% inhibitory concentration (IC50) was 9.67 µM.

As for `COc1ccccc1Nc1nc(NCc2ccco2)c2ccccc2n1`, the IC50 was under 0.15 µM.

As for `CCCCn1c(NS(=O)(=O)c2ccc(C)cc2)c(S(=O)(=O)c2ccccc2)c2nc3ccccc3nc21`, the IC50 is under 0.15 µM.

As to `C1=C(CCNc2ncnc3c2[nH]c2ccccc23)CCCC1`, the 50% inhibitory concentration (IC50) is 106 µM.

In the case of `CCn1cc(C(=O)O)c(=O)c2cc(F)c(N3CCN(C(=S)Nc4ccc(Cl)cc4)CC3)cc21`, the concentration for half-maximal inhibition (IC50) was 60.8 µM.

Consider `CN1CCN(C2=Cc3cc(Cl)ccc3Sc3cc(F)ccc32)CC1`, for which the IC50 is 53.7 µM.

Consider `COc1c(N2CCN(C(=S)NCc3ccccc3)C(C)C2)c(F)cc2c(=O)c(C(=O)O)cn(C3CC3)c12` (stereo not drawn), for which the 50% inhibitory concentration (IC50) is 79.1 µM.

Regarding `O=C(Nc1cccnc1)c1cc(Br)c(Br)s1`, the half-inhibitory concentration (IC50) was under 0.15 µM.

Turning to `O=C(Nc1ccc(Cl)cc1)N1CCCN(Cc2ccccc2F)C1`, the IC50 is 31.3 µM.

On to `O=S(=O)(Nc1c(S(=O)(=O)c2ccccc2)c2nc3ccccc3nc2n1C1CCCCC1)c1ccccc1`, for which the IC50 was under 0.15 µM.

Turning to `O=C(Nc1ccc(Cl)cc1)N1CCCN(Cc2ccc(F)cc2)C1`, the IC50 was 61.4 µM.

In the case of `Cc1ccc(CN2CCCN(C(=O)Nc3ccc(Cl)cc3)C2)cc1`, the IC50 is 46.2 µM.

As to `O=C1C2=C(Nc3ccccc3SC2c2ccsc2)c2ccccc21` (stereo not drawn), the IC50 is 34.5 µM.

Consider `CCn1cc(C(=O)O)c(=O)c2cc(F)c(N3CCN(C(=S)Nc4ccccc4C(F)(F)F)CC3)cc21`, for which the IC50 is 24.1 µM.

For `CCOc1ccc(NC(=S)N2CCN(c3cc4c(cc3F)c(=O)c(C(=O)O)cn4CC)CC2)cc1`, the IC50 was 47.6 µM.

Regarding `CN1CCc2nc(SCC(=O)Nc3cccc(F)c3)c(C#N)c(-c3cccs3)c2C1`, the IC50 was 0.05 µM.

`O=C1C2=C(Nc3ccccc3SC2c2ccc(I)cc2)c2ccccc21` (stereo not drawn): the concentration for half-maximal inhibition (IC50) is 3.67 µM.

Take `COc1ccc(NC(=O)c2cc(Br)c(Br)s2)cn1`: the IC50 is under 0.15 µM.

`S=C(NCc1ccccc1Cl)Nc1ccncc1`: the IC50 was 131 µM.

`COc1ccc(CNC(=S)Nc2ccncc2)cc1`: the concentration for half-maximal inhibition (IC50) is 48.1 µM.

With `O=C(O)c1cn(-c2ccc(F)cc2)c2cc(Cl)c(F)cc2c1=O`, the IC50 is under 0.15 µM.

`O=C1c2ccccc2C2=Nc3ccccc3SC(c3ccccc3F)C12` (stereo not drawn): the IC50 is under 0.15 µM.

Consider `CCn1cc(C(=O)O)c(=O)c2cc(F)c(N3CCN(C(=S)NC(=O)c4ccccc4Cl)CC3)cc21`, for which the IC50 is 20.5 µM.

With `CCCCCNC(=O)c1cn(CC)c2cc(N3CCN(C)CC3)c(F)cc2c1=O`, the IC50 is under 0.15 µM.

In the case of `O=C1C2=C(Nc3ccccc3SC2c2ccc(C(F)(F)F)cc2)c2ccccc21` (stereo not drawn), the IC50 is under 2.35 µM.

As for `N#C/C(=C\c1ccc[nH]1)C(=O)NC1CC1`, the IC50 is 60.4 µM.

On to `O=c1c2ccccc2[nH]c2ccc(F)cc12`, for which the half-maximal inhibitory concentration (IC50) is under 0.15 µM.

On to `O=C1C2=C(Nc3ccccc3SC2c2ccco2)c2ccccc21` (stereo not drawn), for which the IC50 is 16.8 µM.

Regarding `COc1ccccc1NC(=O)N1CCCN(Cc2ccccc2F)C1`, the IC50 was 136 µM.

With `S=C(NCc1ccc(Cl)cc1)Nc1ccncc1`, the IC50 is 15.9 µM.

For the compound `CCCCn1c(NS(=O)(=O)c2ccccc2)c(S(=O)(=O)c2ccc(C)cc2)c2nc3ccccc3nc21`, the concentration for half-maximal inhibition (IC50) was under 0.15 µM.

As for `COc1cccc(C2Sc3ccccc3NC3=C2C(=O)c2ccccc23)c1` (stereo not drawn), the IC50 was 33.4 µM.

`O=C(Nc1ccccc1)N1CCCN(Cc2ccc(F)cc2)C1`: the IC50 was 72.2 µM.

Source of the values: PubChem BioAssay AID2839 (Southern Research Specialized Biocontainment Screening …, 2010).
